Laboratory results reported in ChEMBL document CHEMBL1201862, “PubChem BioAssay data set” (2004).
The source made the active and inactive calls.

Assays:
[1] = molecular target: T1, Coagulation factor XII (Homo sapiens, UniProt P00748); format: functional;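 note: activated factor XIIa alpha cleaving a fluorogenic AMC peptide substrate; inhibitor potency from loss of enzyme activity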
T1 sequence (P00748 whole entry): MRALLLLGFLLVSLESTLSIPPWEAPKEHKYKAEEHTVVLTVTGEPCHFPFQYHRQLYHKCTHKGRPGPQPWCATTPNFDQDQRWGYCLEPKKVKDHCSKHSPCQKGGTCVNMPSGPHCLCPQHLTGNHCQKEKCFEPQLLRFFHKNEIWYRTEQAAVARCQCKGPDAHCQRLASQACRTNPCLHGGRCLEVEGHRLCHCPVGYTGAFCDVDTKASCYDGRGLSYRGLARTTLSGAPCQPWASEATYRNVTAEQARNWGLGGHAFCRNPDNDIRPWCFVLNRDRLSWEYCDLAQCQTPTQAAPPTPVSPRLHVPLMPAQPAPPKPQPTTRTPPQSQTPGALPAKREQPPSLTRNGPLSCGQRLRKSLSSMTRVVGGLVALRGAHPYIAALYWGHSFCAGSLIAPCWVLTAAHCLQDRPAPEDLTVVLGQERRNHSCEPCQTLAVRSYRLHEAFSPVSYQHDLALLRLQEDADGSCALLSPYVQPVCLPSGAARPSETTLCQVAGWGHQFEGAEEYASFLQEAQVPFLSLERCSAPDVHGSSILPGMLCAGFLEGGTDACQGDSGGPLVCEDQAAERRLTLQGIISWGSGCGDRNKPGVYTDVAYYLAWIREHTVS

[2] = molecular target: T2, Heat shock factor protein 1 (Mus musculus, UniProt P38532); experiment: decrease of HSF1-responsive luciferase luminescence – cell-based, NIH3T3, dose retest, confirmation (AID 2382); format: functional;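 note: NIH3T3 fibroblasts with HSF1-driven luciferase reporter stressed by proteasome inhibitor MG132; luminescence from HSF1-driven luciferase expression after 8 hours of MG132 stress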
T2 sequence (P38532 whole entry): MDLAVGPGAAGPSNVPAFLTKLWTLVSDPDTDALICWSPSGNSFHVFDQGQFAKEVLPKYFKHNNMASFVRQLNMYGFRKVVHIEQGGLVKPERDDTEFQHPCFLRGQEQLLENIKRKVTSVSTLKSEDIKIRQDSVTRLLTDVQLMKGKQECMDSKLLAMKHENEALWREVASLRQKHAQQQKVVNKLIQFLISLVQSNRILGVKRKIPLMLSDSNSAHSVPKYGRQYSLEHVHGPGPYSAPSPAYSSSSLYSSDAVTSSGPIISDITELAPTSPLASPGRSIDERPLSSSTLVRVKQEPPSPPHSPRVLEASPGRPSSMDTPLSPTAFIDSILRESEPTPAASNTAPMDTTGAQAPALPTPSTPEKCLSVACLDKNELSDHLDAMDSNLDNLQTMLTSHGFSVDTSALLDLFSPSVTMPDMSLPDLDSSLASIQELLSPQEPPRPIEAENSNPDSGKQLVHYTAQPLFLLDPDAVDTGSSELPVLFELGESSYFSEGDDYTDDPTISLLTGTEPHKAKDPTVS

[3] = system: P388; experiment: cells; format: functional; conditions: Mus musculus
[4] = system: SN12K1; experiment: cells; format: functional; conditions: Homo sapiens
[5] = system: P388/ADR; experiment: cells; format: functional; conditions: Mus musculus
[6] = molecular target: T3, Alkaline phosphatase, tissue-nonspecific isozyme (Homo sapiens, UniProt P05186); experiment: potency against alkaline phosphatase TNAP – biochemical, luminescent, dose response, SAR follow-up (AID 1056)
T3 sequence (P05186 whole entry): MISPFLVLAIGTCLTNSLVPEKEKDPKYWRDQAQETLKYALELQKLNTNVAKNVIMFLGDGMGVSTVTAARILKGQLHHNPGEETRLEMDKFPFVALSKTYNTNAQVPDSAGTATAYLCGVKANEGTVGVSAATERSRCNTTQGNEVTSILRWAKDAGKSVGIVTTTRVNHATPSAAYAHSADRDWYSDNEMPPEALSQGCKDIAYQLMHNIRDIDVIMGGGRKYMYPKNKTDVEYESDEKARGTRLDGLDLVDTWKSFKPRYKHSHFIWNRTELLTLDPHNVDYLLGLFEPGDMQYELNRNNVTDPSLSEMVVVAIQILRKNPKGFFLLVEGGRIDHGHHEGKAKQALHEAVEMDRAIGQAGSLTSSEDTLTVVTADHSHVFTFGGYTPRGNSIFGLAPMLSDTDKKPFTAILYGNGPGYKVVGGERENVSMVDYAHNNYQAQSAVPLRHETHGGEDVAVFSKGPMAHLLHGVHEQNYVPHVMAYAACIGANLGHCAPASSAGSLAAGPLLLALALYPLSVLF

[7] = molecular target: Glyceraldehyde-3-phosphate dehydrogenase (Homo sapiens, UniProt P04406)
Glyceraldehyde-3-phosphate dehydrogenase, sequence (P04406 whole entry): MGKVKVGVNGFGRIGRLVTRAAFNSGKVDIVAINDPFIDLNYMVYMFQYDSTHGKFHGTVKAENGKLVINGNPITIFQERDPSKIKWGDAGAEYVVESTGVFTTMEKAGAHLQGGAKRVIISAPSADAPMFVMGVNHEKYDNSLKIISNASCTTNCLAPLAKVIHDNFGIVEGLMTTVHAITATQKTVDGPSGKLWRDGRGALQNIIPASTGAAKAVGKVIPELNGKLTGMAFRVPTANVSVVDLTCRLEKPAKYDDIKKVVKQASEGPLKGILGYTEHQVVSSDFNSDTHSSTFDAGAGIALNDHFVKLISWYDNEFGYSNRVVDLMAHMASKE

| SMILES | IC50 [1] | GI50 [3] | GI50 [4] | GI50 [5] | also measured |
| --- | --- | --- | --- | --- | --- |
| CC(CN1C(C)CCCC1C)OC(=O)c1ccc(Cl)cc1Cl (centres undefined) | > 50 µM (inactive) | – | – | – | – |
| CCC(CC)c1nnc(NC(=O)Oc2ccccc2)s1 | > 50 µM (inactive) | – | – | – | – |
| Cc1nn2c(CN(C(=O)CN3CCOCC3)c3ccccc3)nnc2c2ccccc12 | > 50 µM (inactive) | – | – | – | EC50 [2]: > 195 µM (not active) |
| CN(N=O)C(=O)N[C@H]1C(O)O[C@H](CO)[C@@H](O)[C@@H]1O (some centres undefined) | – | 451 µM (inactive) | 532 µM (inactive) | 484 µM (inactive) | – |
| Nc1ccnn1Cc1cccs1 | > 50 µM (inactive) | – | – | – | – |
| c1ccc(Cn2cnc(-c3cccnc3)c2)cc1 | – | – | – | – | IC50 [6]: > 100 µM (inactive); IC50 [7]: > 100 µM (not active) |
| C#CCNC(=O)CCC(N)C(=O)O (centres undefined) | – | > 100 µM (inactive) | > 100 µM (inactive) | > 100 µM (inactive) | – |
| C[C@H](N)C(=O)N[C@@H]1[C@H]2C(=C(O)C[C@@H](O)[C@@H]2O)C(=O)O[C@@H]1C | – | > 53.2 µM (inactive) | > 100 µM (inactive) | > 73.3 µM (inactive) | – |
| COC1=C(C)C(=O)C2=C(C1=O)[C@@H]1[C@@H]3Cc4c(OC(=O)CO)c(C)c(OC)c(O)c4[C@H](CNC(=O)C(C)=O)N3[C@@H](C#N)[C@H](C2)N1C | – | < 0.01 µM (active) | 0.0358 µM (active) | 0.125 µM (active) | – |
| CC1[C@@]2(O[C@@H]3C=C4C5CCC6Cc7nc8c(nc7C[C@@]6(C)C5C[C@H](O)[C@@]4(C)[C@]13O)CC1CCc3c(cc4c5c3C(O)C[C@H]5[C@@H](C)C3(O4)OC(C)(C)CC3O)[C@]1(C)C8)O[C@@](C)(CO)C[C@@H]2O (some centres undefined) | – | 0.103 µM (active) | 0.0404 µM (active) | 2.69 µM (inactive) | – |
| Nc1ccn(C2OC(CO)C(O)C2O)c(=O)c1 (centres undefined) | – | 57 µM (inactive) | 344 µM (inactive) | – | – |
